Reference: US9604983B2, “Herbicidal 3-(2-benzyloxyphenyl)-2,4-dihydroxy-1,8-naphthyridine derivatives” (SYNGENTA LIMITED, priority 2013, dated 2017)

Tests used:
Experiment in all cases: Post-emergence efficacy, glasshouse pot test
Assay type in all cases: in vivo
Conditions in all cases: post-emergence application at 1000 g/ha; evaluated after 13 days; five point scale
[1] = system: Echinochloa crus-galli (ECHCG)
Method: (§1) B1 Post-emergence Efficacy Seeds of a variety of test species are sown in standard soil in pots:—Solanum nigrum (SOLNI), Amaranthus retoflexus (AMARE), Setaria faberi (SETFA), Alopecurus myosuroides (ALOMY), Echinochloa crus-galli (ECHCG), Ipomoea hederacea (IPOHE). After 8 days cultivation (post-emergence) under controlled conditions in a glasshouse (at 24/16° C., day/night; 14 hours light; 65% humidity), the plants are sprayed with an aqueous spray solution derived from the formulation of the technical active ingredient in acetone/water (50:50) solution containing 0.5% Tween 20 (polyoxyethelyene sorbitan monolaurate, CAS RN 9005-64-5). Compounds are applied at 1000 g/ha. The test plants are then grown in a glasshouse under controlled conditions in a glasshouse (at 24/16° C., day/night; 14 hours light; 65% humidity) and watered twice daily. After 13 days, the test is evaluated for the percentage damage caused to the plant. The biological activities are shown below in Table 13, on a five point scale (5=80-100%; 4=60-79%; 3=40-59%; 2=20-39%; 1=0-19%).

[2] = system: Ipomoea hederacea (IPOHE)
Method: as §1

[3] = system: Alopecurus myosuroides (ALOMY)
Method: as §1

[4] = system: Amaranthus retoflexus (AMARE)
Method: as §1

Solanum nigrum (SOLNI) = system: Solanum nigrum (SOLNI)
Method: as §1

Setaria faberi (SETFA) = system: Setaria faberi (SETFA)
Method: as §1

Row | Structure (SMILES) | percentage damage caused to the plant, ECHCG [1] | percentage damage caused to the plant, IPOHE [2] | percentage damage caused to the plant, ALOMY [3] | percentage damage caused to the plant, AMARE [4] | percentage damage caused to the plant, SOLNI (Solanum nigrum (SOLNI)) | percentage damage caused to the plant, SETFA (Setaria faberi (SETFA))
1 | C#CCn1c(=O)c(-c2c(Cl)ccc(Cl)c2OCc2ccccc2)c(OC(=O)C(C)C)c2c(OC)ccnc21 [Compound 1.007] | 1 (1=0-19%) | 1 (1=0-19%) | 1 (1=0-19%) | 4 (4=60-79%) | 4 (4=60-79%) | 1 (1=0-19%)
2 | C#CCn1c(=O)c(-c2c(Cl)ccc(Cl)c2OCc2ccc(C(F)(F)F)cc2)c(O)c2cccnc21 [Compound 2.006] | 5 (5=80-100%) | 5 (5=80-100%) | 4 (4=60-79%) | 5 (5=80-100%) | 5 (5=80-100%) | 5 (5=80-100%)
3 | C#CCn1c(=O)c(-c2cccc(Cl)c2OCc2ccccc2)c(O)c2nccnc21 [Compound 10.003] | 5 (5=80-100%) | 5 (5=80-100%) | 4 (4=60-79%) | 5 (5=80-100%) | 5 (5=80-100%) | 5 (5=80-100%)
4 | COc1ccnc2c1c(O)c(-c1c(Cl)ccc(Cl)c1OCc1ccccc1)c(=O)n2CC(F)F [Compound 4.007] | 3 (3=40-59%) | 5 (5=80-100%) | 3 (3=40-59%) | 5 (5=80-100%) | 5 (5=80-100%) | 2 (2=20-39%)
5 | C#CCn1c(=O)c(-c2c(F)ccc(Cl)c2OCc2ccccc2)c(OC(=O)C(C)C)c2nccnc21 [Compound 5.003] | 2 (2=20-39%) | 5 (5=80-100%) | 2 (2=20-39%) | 5 (5=80-100%) | 5 (5=80-100%) | 5 (5=80-100%)
6 | C#CCn1c(=O)c(-c2c(Cl)ccc(Cl)c2OCc2ccccc2)c(OC(=O)C(C)C)c2cccnc21 [Compound 1.001, [3-(2-Benzyloxy-3,6-dichloro-phenyl)-2-oxo-1-prop-2-ynyl-1,8-naph-thyridin-4-yl]2-methylpropanoate] | 4 (4=60-79%) | 5 (5=80-100%) | 2 (2=20-39%) | 5 (5=80-100%) | 5 (5=80-100%) | 4 (4=60-79%)
7 | C#CCn1c(=O)c(-c2cccc(Cl)c2OCc2ccccc2)c(OC(=O)C(C)C)c2nccnc21 [Compound 9.003] | 5 (5=80-100%) | 5 (5=80-100%) | 2 (2=20-39%) | 4 (4=60-79%) | 5 (5=80-100%) | 5 (5=80-100%)
8 | Cc1ccc(COc2c(Cl)ccc(Cl)c2-c2c(O)c3cccnc3n(CC(F)F)c2=O)cc1 [Compound 4.004] | 2 (2=20-39%) | 5 (5=80-100%) | 2 (2=20-39%) | 5 (5=80-100%) | 5 (5=80-100%) | 1 (1=0-19%)
9 | C#CCn1c(=O)c(-c2c(F)ccc(Cl)c2OCc2ccccc2)c(O)c2c(OC)ccnc21 [Compound 6.002] | 5 (5=80-100%) | 5 (5=80-100%) | 5 (5=80-100%) | 5 (5=80-100%) | 5 (5=80-100%) | 5 (5=80-100%)
10 | C#CCn1c(=O)c(-c2c(Cl)ccc(Cl)c2OCc2ccccc2)c(O)c2nccnc21 [Compound 2.008] | 5 (5=80-100%) | 5 (5=80-100%) | 5 (5=80-100%) | 5 (5=80-100%) | 5 (5=80-100%) | 5 (5=80-100%)
11 | C#CCn1c(=O)c(-c2c(F)ccc(Cl)c2OCc2ccccc2)c(O)c2cccnc21 [Compound 6.001] | 4 (4=60-79%) | 5 (5=80-100%) | 3 (3=40-59%) | 5 (5=80-100%) | 5 (5=80-100%) | 2 (2=20-39%)
12 | COc1ccnc2c1c(OC(=O)C(C)C)c(-c1c(Cl)ccc(Cl)c1OCc1ccccc1)c(=O)n2CC(F)F [Compound 3.007] | 1 (1=0-19%) | 2 (2=20-39%) | 1 (1=0-19%) | 4 (4=60-79%) | 2 (2=20-39%) | 1 (1=0-19%)
13 | C#CCn1c(=O)c(-c2c(F)ccc(Cl)c2OCc2ccccc2)c(O)c2nccnc21 [Compound 6.003] | 4 (4=60-79%) | 5 (5=80-100%) | 4 (4=60-79%) | 5 (5=80-100%) | 5 (5=80-100%) | 5 (5=80-100%)
14 | C#CCn1c(=O)c(-c2c(Cl)ccc(Cl)c2OCc2ccccc2)c(O)c2cccnc21 [Compound 2.001, 3-(2-Benzyloxy-3,6-dichloro-phenyl)-4-hydroxy-1-prop-2-ynyl-1,8-naphthyridin-2-one] | 5 (5=80-100%) | 5 (5=80-100%) | 5 (5=80-100%) | 5 (5=80-100%) | 5 (5=80-100%) | 5 (5=80-100%)
15 | O=c1c(-c2c(F)ccc(Cl)c2OCc2ccccc2)c(O)c2nccnc2n1CC(F)F [Compound 8.003] | 4 (4=60-79%) | 5 (5=80-100%) | 3 (3=40-59%) | 5 (5=80-100%) | 5 (5=80-100%) | 5 (5=80-100%)
16 | CC(C)C(=O)Oc1c(-c2cccc(Cl)c2OCc2ccccc2)c(=O)n(CC(F)F)c2nccnc12 [Compound 11.003] | 5 (5=80-100%) | 5 (5=80-100%) | 2 (2=20-39%) | 5 (5=80-100%) | 5 (5=80-100%) | 5 (5=80-100%)
17 | C#CCn1c(=O)c(-c2c(Cl)ccc(Cl)c2OCc2ccc(C)cc2)c(O)c2cccnc21 [Compound 2.004] | 4 (4=60-79%) | 5 (5=80-100%) | 4 (4=60-79%) | 5 (5=80-100%) | 5 (5=80-100%) | 4 (4=60-79%)
